Reference: ChEMBL document CHEMBL5634168, “The discovery of an anti-inflammatory monoterpenoid, neoroseoside from the Zea mays” (2024)
The source made the active and inactive calls. No cut-off for these calls is given here.

Legend:
RAW264.7 [1] = experiment: Antiinflammatory activity in mouse RAW264.7 cells assessed as inhibition of IL-6 production; format: functional, cell-based; settings: dose <= 100.0 µg/ml
RAW264.7 [2] = experiment: Antiinflammatory activity in LPS induced mouse RAW264.7 cells assessed as inhibition of IL-6 production at 100 ug/ml measured after 24 hrs; format: functional; settings: dose 100 µg/ml
Streptococcus sobrinus [3] = experiment: Antibacterial activity against Streptococcus sobrinus ATCC 33478 assessed as reduction in bacterial growth at 1.25 to 100 ug/ml by broth microdilution method relative to control; format: functional; parameters: scale not given: the % may be the effect or the level left; settings: dose 1.25-100 µg/ml; at 1.25 to 100 µg/mL
Streptococcus mutans [4] = experiment: Antibacterial activity against Streptococcus mutans ATCC 25175 assessed as reduction in bacterial growth at 1.25 to 100 ug/ml by broth microdilution method relative to control; format: functional; parameters: scale not given: the % may be the effect or the level left; settings: dose 1.25-100 µg/ml; at 1.25 to 100 µg/mL
RAW264.7 [5] = experiment: Antiinflammatory activity in LPS induced mouse RAW264.7 cells assessed as reduction in TNF-alpha production at 100 ug/ml measured after 24 hrs; format: functional; settings: dose 100 µg/ml
RAW264.7 [6] = experiment: Antiinflammatory activity in mouse RAW264.7 cells assessed as inhibition of TNF-alpha production; format: functional, cell-based; settings: dose <= 100.0 µg/ml
Streptococcus mutans [7] = experiment: Antibacterial activity against Streptococcus mutans ATCC 25175 assessed as reduction in bacterial growth at 1.25 to 100 ug/ml by broth microdilution method; format: functional, organism-based; settings: dose 1.25-100 µg/ml
Streptococcus sobrinus [8] = experiment: Antibacterial activity against Streptococcus sobrinus ATCC 33478 assessed as reduction in bacterial growth at 1.25 to 100 ug/ml by broth microdilution method; format: functional, organism-based; settings: dose 1.25-100 µg/ml

Structure (SMILES)	Activity (RAW264.7 [1])	Activity (RAW264.7 [2]) [pg/mL]	Activity (Streptococcus sobrinus [3]) [%]	Activity (Streptococcus mutans [4]) [%]	Activity (RAW264.7 [5]) [pg/mL]	Activity (RAW264.7 [6])	Activity (Streptococcus mutans [7])	Activity (Streptococcus sobrinus [8])
C[C@@H]1O[C@@H](O[C@H]2[C@@H](O)[C@H](O)[C@@H](C)O[C@H]2c2c(O)cc3oc(-c4ccc(O)c(O)c4)cc(=O)c3c2O)[C@@H](O)[C@H](O)[C@H]1O	Dose-Dependent Effect	766.6	26	24	7473.5	Dose-Dependent Effect	–	–
C[C@@H](/C=C/[C@@]1(O)C(C(=O)O)=CC(=O)CC1(C)C)O[C@@H]1O[C@H](CO)[C@@H](O)[C@H](O)[C@H]1O	Dose-Dependent Effect	1570.7	–	–	9806.7	Dose-Dependent Effect	inactive	inactive
C[C@H]1O[C@@H](c2c(O[C@@H]3O[C@H](CO)[C@@H](O)[C@H](O)[C@H]3O)cc3oc(-c4ccc(O)c(O)c4)cc(=O)c3c2O)C[C@H](O)[C@H]1O [FAROBIN A]	Dose-Dependent Effect	1051.8	26	28	9606	Dose-Dependent Effect	–	–
